{"source": "patent US20260061037A1", "about": "“BACILLUS SPECIES STRAIN EXPRESSING SUPEROXIDE DISMUTASE, BACILLUS SPECIES STRAIN SPORE AND/OR SUPEROXIDE DISMUTASE, AND USE THEREOF FOR PREVENTING OR TREATING OF FIBROTIC DISEASE” (HLB GENEX, INC., priority 2022, published 2026)", "key": {"[1]": {"system": "nonalcoholic steatohepatitis (NASH) STAM™ animal model", "type": "in vivo", "conditions": "PO, QD, GF423 1×10^7 CFU, telmisartan 10 mg/kg", "method": "C57BL/6J mice (14-day-pregnant female, 6-week-old male) (purchased from SLC, Japan) were maintained in a SPF facility with controlled temperature (23±3° C.), humidity (50±20%), lighting (12-hour artificial light/dark cycle; light cycle from 08:00 to 20:00), and air exchange.\nNASH was induced in all groups except the normal group of 8 mice as follows: On the second day after birth, the male mice were injected subcutaneously once with 200 μg streptozotocin (STZ, purchased from Sigma-Aldrich) solution. […]\nThe 10-week-old mice with induced NASH were randomized to 9 groups, each containing 8 mice, based on their body weight on the day before the start of treatment. […] The NASH model mice were stratified by the body weight, and the standard deviation (SD) was calculated to minimize the difference in mean body weight between the groups. […]\n(§1) The GF427-administered groups were administered once a day at five dose levels: 0.05×10^7 (lowest dose), 0.1×10^7 (low dose), 0.5×10^7 (middle dose), 1×10^7 (high dose), and 5×10^7 CFU (highest dose) per mouse. […] The animals were monitored daily for viability, clinical signs (lethargy, convulsion, respiratory distress), and behavior to observe whether there are any significant clinical signs of toxicity, coma, and death before and after administration of the test substance. […]"}, "[2]": {"system": "nonalcoholic steatohepatitis (NASH) STAM™ animal model", "type": "in vivo", "method": "(§2) NASH was induced in all groups except the normal group of 8 mice as follows: On the second day after birth, the male mice were injected subcutaneously once with 200 μg streptozotocin (STZ, purchased from Sigma-Aldrich) solution. After the mice reached 4 weeks of age, a solid high-fat diet (HFD, 57 kcal % fat, purchased from CLEA Japan, Inc., Cat #HFD32) was placed on a metal lid on top of the cage so that the mice access it ad libitum, thereby inducing NASH\nThe GF427-administered groups were administered once a day at five dose levels: 0.05×10^7 (lowest dose), 0.1×10^7 (low dose), 0.5×10^7 (middle dose), 1×10^7 (high dose), and 5×10^7 CFU (highest dose) per mouse. The GF423-administered group was administered once a day at a dose of 1×10^7 CFU per mouse. GF103 was administered once a day at a dose of 10 U per mouse. Telmisartan was administered once a day at a dose of 10 mg/kg. GF427, GF423, and GF103 were administered orally in the form of a vehicle at a dose of 100 μL, and telmisartan was administered orally in the form of being supplemented with reverse osmosis water (RO water) at a dose of 10 mL/kg. The normal and disease control groups were not subjected to any treatment before sacrifice, and were sacrificed at 13 weeks of age by exsanguination via direct cardiac puncture under isoflurane (purchased from Pfizer Inc.) anesthesia. The animals were monitored daily for viability, clinical signs (lethargy, convulsion, respiratory distress), and behavior to observe whether there are any significant clinical signs of toxicity, coma, and death before and after administration of the test substance. […] All animal care and experiments were conducted in accordance with laws and regulations related to animal welfare and management.\nAt sacrifice of the mice, the whole liver was collected and washed with cold saline. Photographs of the individual whole liver (parietal side and visceral side) were taken. Then, the liver weight was measured and the liver-to-body weight ratio was calculated. […]"}, "[3]": {"system": "nonalcoholic steatohepatitis (NASH) STAM™ animal model", "experiment": "Plasma ALT level in NASH STAM model", "type": "in vivo, C57BL/6J mice", "conditions": "PO, QD; GF423 1×10^7 CFU, GF103 10 U, telmisartan 10 mg/kg; vs disease control group", "method": "as §2\nas §1, with “mouse. The GF423-administered group was administered once a day at a dose of 1×10^7 CFU per mouse. GF103 was administered once a day at a dose of 10 U per mouse. Telmisartan was administered once a day at a dose of 10 mg/kg.” for “mouse.”\nPlasma ALT level was measured using FUJI DRI-CHEM 7000 (purchased from Fujifilm Corporation). […]"}, "[4]": {"system": "nonalcoholic steatohepatitis (NASH) STAM™ animal model", "experiment": "H&E staining of liver and NAFLD activity score in NASH STAM model", "type": "in vivo, C57BL/6J mice", "conditions": "PO, QD; GF423 1×10^7 CFU, GF103 10 U, telmisartan 10 mg/kg; vs disease control group", "method": "as §2\nas §1, with “mouse. The GF423-administered group was administered once a day at a dose of 1×10^7 CFU per mouse. GF103 was administered once a day at a dose of 10 U per mouse. Telmisartan was administered once a day at a dose of 10 mg/kg.” for “mouse.”\nThe paraffin block of liver tissue prepared in Example 7.3 was sectioned using a rotary microtome (purchased from Leica Microsystems). […] The tissue slides were subjected to H&E staining and evaluated by the investigator. […]"}, "[5]": {"system": "nonalcoholic steatohepatitis (NASH) STAM™ animal model", "experiment": "Sirius red staining of liver (fibrosis area) in NASH STAM model", "type": "in vivo, C57BL/6J mice", "conditions": "PO, QD; GF423 1×10^7 CFU, GF103 10 U, telmisartan 10 mg/kg; vs disease control group", "method": "as §2\nThe GF427-administered groups were administered once a day at five dose levels: 0.05×10^7 (lowest dose), 0.1×10^7 (low dose), 0.5×10^7 (middle dose), 1×10^7 (high dose), and 5×10^7 CFU (highest dose) per mouse. The GF423-administered group was administered once a day at a dose of 1×10^7 CFU per mouse. […] The animals were monitored daily for viability, clinical signs (lethargy, convulsion, respiratory distress), and behavior to observe whether there are any significant clinical signs of toxicity, coma, and death before and after administration of the test substance. […]\nFor quantitative analysis of fibrosis area, bright field images of the Sirius red-stained section were captured around the central vein using a digital camera (DFC295, purchased from Leica) at 200-fold magnification, and the positive areas in 5 fields/section were measured using ImageJ software (National Institute of Health, USA). […]"}, "[6]": {"conditions": "PO, QD, weeks 10 to 13, GF423 1×10^7 CFU, GF103 10 U, telmisartan 10 mg/kg, vs disease control group"}}}
{"smiles": "CCCc1nc2c(C)cc(-c3nc4ccccc4n3C)cc2n1Cc1ccc(-c2ccccc2C(=O)O)cc1", "note": "[telmisartan, Telmisartan]", "values": [{"measurement": "mean body weight during the treatment period", "setting": "[1]; weeks 10 to 13, GF427 0.05-5×10^7 CFU, GF103 10 U, vs disease control group", "value": "significantly lower than that of the disease control group from day 17 to day 21"}, {"measurement": "mice found dead or euthanized before day 21", "setting": "[1]; 8 mice per group", "value": "two of the eight mice were euthanized"}, {"measurement": "mean liver weight", "setting": "[2]; [6]", "value": "significant decrease in mean liver weight"}, {"measurement": "mean liver-to-body weight ratio", "setting": "[2]; [6]", "value": "tended to show a decrease in mean liver-to-body weight ratio"}, {"measurement": "daily mean body weight on the day of sacrifice", "setting": "[2]; mouse, in vivo, po", "value": "significant decrease in daily mean body weight on the day of sacrifice"}, {"measurement": "plasma ALT level", "setting": "[3]", "value": "tended to show a decrease in plasma ALT level"}, {"measurement": "NAFLD activity score (NAS)", "setting": "[4]", "value": "significant decrease in NAS"}, {"measurement": "fibrosis area (Sirius red-positive area)", "setting": "[5]", "value": "tended to decrease"}]}
